Structures are written as SMILES.

T1 sequence (J9SQF3 1-1709 isoform J9SQF3-12): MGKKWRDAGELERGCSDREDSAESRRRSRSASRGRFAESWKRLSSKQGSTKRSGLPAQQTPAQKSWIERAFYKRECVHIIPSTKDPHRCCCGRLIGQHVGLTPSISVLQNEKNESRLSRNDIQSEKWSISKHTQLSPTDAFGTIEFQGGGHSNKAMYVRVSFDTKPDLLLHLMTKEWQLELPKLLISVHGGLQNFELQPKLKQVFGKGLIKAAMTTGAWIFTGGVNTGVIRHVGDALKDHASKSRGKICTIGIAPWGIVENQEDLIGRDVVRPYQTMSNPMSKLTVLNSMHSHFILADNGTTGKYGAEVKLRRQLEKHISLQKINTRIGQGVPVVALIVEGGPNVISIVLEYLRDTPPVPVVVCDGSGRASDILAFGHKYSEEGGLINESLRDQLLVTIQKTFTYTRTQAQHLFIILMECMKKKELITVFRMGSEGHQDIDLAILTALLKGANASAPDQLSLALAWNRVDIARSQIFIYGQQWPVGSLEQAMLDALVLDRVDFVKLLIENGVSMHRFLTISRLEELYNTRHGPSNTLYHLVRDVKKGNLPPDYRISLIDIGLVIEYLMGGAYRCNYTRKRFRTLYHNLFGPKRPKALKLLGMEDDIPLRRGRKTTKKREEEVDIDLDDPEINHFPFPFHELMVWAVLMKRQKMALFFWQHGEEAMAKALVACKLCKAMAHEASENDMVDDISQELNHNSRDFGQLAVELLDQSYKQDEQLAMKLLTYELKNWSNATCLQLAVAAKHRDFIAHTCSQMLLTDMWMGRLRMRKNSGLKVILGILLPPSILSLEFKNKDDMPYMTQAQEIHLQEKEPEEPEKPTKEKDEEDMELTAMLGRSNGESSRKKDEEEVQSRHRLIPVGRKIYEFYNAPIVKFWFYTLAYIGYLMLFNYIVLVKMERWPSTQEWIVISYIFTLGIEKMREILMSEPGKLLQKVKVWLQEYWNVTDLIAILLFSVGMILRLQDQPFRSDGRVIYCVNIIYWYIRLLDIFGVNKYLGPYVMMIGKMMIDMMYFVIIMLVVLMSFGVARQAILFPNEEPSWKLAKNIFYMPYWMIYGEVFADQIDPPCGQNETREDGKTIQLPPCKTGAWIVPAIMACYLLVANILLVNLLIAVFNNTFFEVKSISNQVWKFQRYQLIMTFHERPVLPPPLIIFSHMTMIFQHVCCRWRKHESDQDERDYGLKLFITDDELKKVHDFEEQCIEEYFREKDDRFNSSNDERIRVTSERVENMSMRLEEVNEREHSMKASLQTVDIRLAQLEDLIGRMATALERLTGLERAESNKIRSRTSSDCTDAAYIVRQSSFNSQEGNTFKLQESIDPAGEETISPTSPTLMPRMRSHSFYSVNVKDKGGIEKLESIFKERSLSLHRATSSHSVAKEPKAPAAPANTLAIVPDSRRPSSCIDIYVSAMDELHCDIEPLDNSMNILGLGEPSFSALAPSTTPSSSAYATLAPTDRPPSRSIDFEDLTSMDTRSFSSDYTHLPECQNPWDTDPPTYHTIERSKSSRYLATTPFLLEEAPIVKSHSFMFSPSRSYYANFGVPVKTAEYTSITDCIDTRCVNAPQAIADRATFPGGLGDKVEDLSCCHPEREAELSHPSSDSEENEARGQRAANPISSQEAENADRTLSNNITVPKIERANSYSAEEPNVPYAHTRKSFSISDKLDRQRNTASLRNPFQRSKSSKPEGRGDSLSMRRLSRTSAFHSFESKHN

The assay addresses T1, mouse TRPM3α2 (mTRPM3) ion channel (Mus musculus, UniProt J9SQF3).
T1 construct: expressed in transfected cells; host or cells: flip-in HEK293
The assay is described as follows: TRPM3 ion channel driven Ca2+ uptake, Fluo-4 AM assay, mTRPM3alpha2 overexpressing flip-in HEK293 cells stimulated with pregnenolone sulfate (50 μM). It is filed as cell-based. Conditions: mTRPM3 overexpressing HEK293 cells stimulated with pregnenolone sulfate (50 μM), activity ranges A, B, C. How it is done:
Monitoring the TRPM3 Ion Channel Driven Ca2+ Uptake.
In order to monitor the inhibition of the mouse TRPM3α2 (mTRPM3) ion channel by the compounds of the invention, a cellular system making use of an mTRPM3alpha2 or hTRPM3 overexpressing cell line (flip-in HEK293) was used. The TRPM3 channel was stimulated/opened with Pregnenolone sulfate (PS) (50 μM) which results in Ca^2+ influx.
For mTRPM3, the intracellular Ca^2+ was measured with a Calcium responsive dye, Fluor-4 AM ester (Invitrogen). Cells were cultured until a confluence of 80-90%, washed with Versene (Invitrogen) and detached from the surface by a short incubation with 0.05% Trypsin (Invitrogen). The trypsination process was stopped by the addition of complete cell culture medium (DMEM, glutamax, 10% FCS, NEAA, Pen-Strep). Cells were collected and resuspended in Krebs buffer without Calcium at RT.
Prior the cell seeding (±2000 cells/well into a black, 384 well plate (Greiner)) the diluted compound was added in the assay plate, together with the PS dissolved in Krebs buffer containing Calcium. […] Directly after cell addition the plates were read on an Envision fluorescence reader (Perkin Elmer) by an Excitation of 485 nm and emission at 535 nm.
Channel inhibition was calculated compared to a non-PS stimulated control versus a condition stimulated with PS (50 μM) with vehicle. The ability of the compounds of the invention to inhibit this activity was determined as: Percentage inhibition=[1−((RFU determined for sample with test compound present−RFU determined for sample with positive control inhibitor) divided by (RFU determined in the presence of vehicle−RFU determined for sample with positive control inhibitor))]*100.
The activities of the Example compounds cpd 001-262 tested are depicted in the table below. All tested compounds show an activity in the Fluo-4 AM assay. The activity ranges A, B and C refer to IC50 values in the Fluo-4 AM assay as follows: “A”: IC50<1 μM; “B”: 1 μM≤IC50≤20 μM and “C”: IC50>20 μM.
Turning to `CN(C)CC(C)(CC(F)F)NC(=O)c1c2cc(OCc3ccccn3)ccc2nn1C` (single isomer, unassigned) [Cpd 229 - En2, N-[1-(dimethylamino)-4,4-difluoro-2-methylbutan-2-yl]-2-methyl-5-[(pyridin-2-yl)methoxy]-2H-indazole-3-carboxamide], the IC50 (commonly the concentration that inhibits the measured activity by half) was greater than 20 µM.
Molecule `Cn1ccc(NC(=O)c2c3cc(OCc4ccnn4C)ccc3nn2C)n1` [Cpd 006, 2-methyl-N-(1-methyl-1H-pyrazol-3-yl)-5-[(1-methyl-1H-pyrazol-5-yl)methoxy]-2H-indazole-3-carboxamide] had an IC50 greater than 20 µM.
Consider `CNC(=O)C1(NC(=O)c2c3cc(OCc4cccnc4C(F)(F)F)ccc3nn2C)CCOC1` (single isomer, unassigned) [Cpd 183 - En2, 2-methyl-N-[3-(methylcarbamoyl)oxolan-3-yl]-5-{[2-(trifluoromethyl)pyridin-3-yl]methoxy}-2H-indazole-3-carboxamide], for which the IC50 was 1 to 20 µM.
As for `Cn1nc2ccc(OCc3ccccn3)cc2c1C(=O)NC(CO)CC(F)(F)F` (single isomer, unassigned) [Cpd 226-En2], the figure is greater than 20 µM; as for `Cn1nc2ccc(OCc3cccnc3C(F)(F)F)cc2c1C(=O)NCC(C)(C)N1CCOCC1` [Cpd 068, 2-methyl-N-[2-methyl-2-(morpholin-4-yl)propyl]-5-{[2-(trifluoromethyl)pyridin-3-yl]methoxy}-2H-indazole-3-carboxamide], 1 to 20 µM; as for `Cn1nc2ccc(OCc3cccnc3C(F)(F)F)cc2c1C(=O)NC1CCNCC1(F)F` (single isomer, unassigned) [Cpd 003 - En2], 1 to 20 µM.
`Cn1nc2ccc(OCC3CCC3)cc2c1C(=O)N[C@@H](CO)C(N)=O` [Cpd 130, (2S)-2-{[5-(cyclobutylmethoxy)-2-methyl-2H-indazol-3-yl]formamido}-3-hydroxypropanamide] showed an IC50 of less than 1 µM.
Under `Cn1ccc(C(C)(CO)NC(=O)c2c3cc(OCc4ccccn4)ccc3nn2C)n1` (single isomer, unassigned) [Cpd 239 - En2] stands greater than 20 µM; under `O=C1NCCn2nc3ccc(OCc4ccccc4F)cc3c21` [Cpd 256, 9-[(2-fluorophenyl)methoxy]-1H,2H,3H,4H-pyrazino[1,2-b]indazol-1-one], greater than 20 µM; under `Cn1nc2ccc(OCc3ccccn3)cc2c1C(=O)NC(CO)c1nccn1C1CC1` (single isomer, unassigned) [Cpd 238 - En2], 1 to 20 µM.
As for `Cn1nc2ccc(OCc3cccnc3C(F)(F)F)cc2c1C(=O)NC1(C(N)=O)COC1` [Cpd 087, N-(3-carbamoyloxetan-3-yl)-2-methyl-5-{[2-(trifluoromethyl)pyridin-3-yl]methoxy}-2H-indazole-3-carboxamide], the figure is 1 to 20 µM; as for `Cn1nc2ccc(OCc3cccnc3C(F)(F)F)cc2c1C(=O)NC1CCN(CCO)C1=O` (stereo not shown) [Cpd 090, N-[1-(2-hydroxyethyl)-2-oxopyrrolidin-3-yl]-2-methyl-5-{[2-(trifluoromethyl)pyridin-3-yl]methoxy}-2H-indazole-3-carboxamide], 1 to 20 µM; as for `Cn1nccc1COc1ccc2nn(C)c(C(=O)NCCN3CCOC3=O)c2c1` [Cpd 055, 2-methyl-5-[(1-methyl-1H-pyrazol-5-yl)methoxy]-N-[2-(2-oxo-1,3-oxazolidin-3-yl)ethyl]-2H-indazole-3-carboxamide], 1 to 20 µM.
As for `Cc1ccc(COc2ccc3nn(C)c(C(=O)NC(C)(CO)C(N)=O)c3c2)cn1` (single isomer, unassigned) [Cpd 174 - En2], the figure is less than 1 µM; as for `Cn1nc2ccc(OCc3ccccc3)cc2c1C(=O)NCCN1CCOC1=O` [Cpd 045, 5-(benzyloxy)-2-methyl-N-[2-(2-oxo-1,3-oxazolidin-3-yl)ethyl]-2H-indazole-3-carboxamide], greater than 20 µM.
Turning to `COCC(C)(CC(F)F)NC(=O)c1c2cc(OCc3ccccn3)ccc2nn1C` (single isomer, unassigned) [Cpd 230 - En1], the half-inhibitory concentration (IC50) is greater than 20 µM.
As for `Cn1nc2ccc(OCC3CC3)cc2c1C(=O)NC1(C(N)=O)CCOC1` (single isomer, unassigned) [Cpd 165 - En1], the figure is 1 to 20 µM; as for `Cn1ccc(C(C)(CO)NC(=O)c2c3cc(OCc4ccccn4)ccc3nn2C)n1` (single isomer, unassigned) [Cpd 239 - En1], greater than 20 µM.
As for `CN(C)C(=O)C(C)(CO)NC(=O)c1c2cc(OCc3cccnc3C(F)(F)F)ccc2nn1C` (single isomer, unassigned) [Cpd 193 - En1, 3-hydroxy-N,N,2-trimethyl-2-[(2-methyl-5-{[2-(trifluoromethyl)pyridin-3-yl]methoxy}-2H-indazol-3-yl)formamido]propanamide], the figure is 1 to 20 µM; as for `Cn1nccc1COc1ccc2nn(C)c(C(=O)NC(C)(CO)CO)c2c1` [Cpd 009, N-(1,3-dihydroxy-2-methylpropan-2-yl)-2-methyl-5-[(1-methyl-1H-pyrazol-5-yl)methoxy]-2H-indazole-3-carboxamide], 1 to 20 µM.
As for `Cn1nc2ccc(OCC(F)F)cc2c1C(=O)NC(C)(CO)C(N)=O` (single isomer, unassigned) [Cpd 187 - En2], the figure is 1 to 20 µM.
For the molecule `Cn1nc2ccc(OCc3cccnc3C(F)(F)F)cc2c1C(=O)NC(C)(CO)CC(F)F` (single isomer, unassigned) [Cpd 202 - En2], the IC50 is less than 1 µM.
Under `Cn1nc2ccc(OCc3ccccn3)cc2c1C(=O)NC(CO)C(F)(F)F` (single isomer, unassigned) [Cpd 254 - En1] stands 1 to 20 µM.
Under `Cn1nc2ccc(OCc3cccnc3C(F)(F)F)cc2c1C(=O)NC1(CO)CCC1` [Cpd 028, N-[1-(hydroxymethyl)cyclobutyl]-2-methyl-5-{[2-(trifluoromethyl)pyridin-3-yl]methoxy}-2H-indazole-3-carboxamide] stands 1 to 20 µM.
In turn, `Cc1ncc(COc2ccc3nn(C(C)C)c(C(=O)NC(C)(CO)C(N)=O)c3c2)s1` (single isomer, unassigned) [Cpd 195 - En2] showed an IC50 of less than 1 µM.
Molecule `Cn1nc2ccc(OCc3cccnc3C(F)(F)F)cc2c1C(=O)NC1CCNC1=O` (stereo not shown) [Cpd 007, 2-methyl-N-(2-oxopyrrolidin-3-yl)-5-{[2-(trifluoromethyl)pyridin-3-yl]methoxy}-2H-indazole-3-carboxamide] displayed an IC50 of less than 1 µM.
As for `Cn1nc2ccc(OCc3ccccn3)cc2c1C(=O)NC(CO)C(C(F)(F)F)C(F)(F)F` (single isomer, unassigned) [Cpd 227 - En2], the figure is greater than 20 µM.
For the molecule `Cc1ncsc1COc1ccc2nn(C)c(C(=O)NC3(C(N)=O)CCOC3)c2c1` (single isomer, unassigned) [Cpd 170 -En2], the IC50 was in the range of 1 to 20 µM.
Under `Cn1nc2ccc(OCC3CC3)cc2c1C(=O)NC1(C(N)=O)CCOC1` (single isomer, unassigned) [Cpd 165 - En2] stands greater than 20 µM; under `Cc1ncsc1COc1ccc2nn(C)c(C(=O)NCc3cccc(O)n3)c2c1` [Cpd 089, N-[(6-hydroxypyridin-2-yl)methyl]-2-methyl-5-[(4-methyl-1,3-thiazol-5-yl)methoxy]-2H-indazole-3-carboxamide], less than 1 µM.
Under `Cc1ncsc1COc1ccc2nn(C)c(C(=O)NC(C)(C)C(N)=O)c2c1` [Cpd 110, 2-methyl-2-({2-methyl-5-[(4-methyl-1,3-thiazol-5-yl)methoxy]-2H-indazol-3-yl}formamido)propanamide] stands 1 to 20 µM; under `CCC(CO)(NC(=O)c1c2cc(OCc3ccccn3)ccc2nn1C)C(N)=O` (stereo not shown) [Cpd 189, 2-(hydroxymethyl)-2-({2-methyl-5-[(pyridin-2-yl)methoxy]-2H-indazol-3-yl}formamido)butanamide], less than 1 µM; under `Cn1nc2ccc(OCc3cccnc3)cc2c1C(=O)NC(C)(CO)C(N)=O` (single isomer, unassigned) [Cpd 190 - En1], 1 to 20 µM.
As for `Cn1nc2ccc(OCc3ccccn3)cc2c1C(=O)NC(CO)c1nccn1C1CC1` (single isomer, unassigned) [Cpd 238 - En1], the figure is 1 to 20 µM; as for `Cn1nc2ccc(OCc3ccccn3)cc2c1C(=O)NC1CNCC(F)(F)C1` (single isomer, unassigned) [Cpd 214 - En1], greater than 20 µM; as for `Cn1nc2ccc(OCc3ccccc3)cc2c1C(=O)NCC1CCC(=O)N1` (stereo not shown) [Cpd 066, 5-(benzyloxy)-2-methyl-N-[(5-oxopyrrolidin-2-yl)methyl]-2H-indazole-3-carboxamide], greater than 20 µM.
In turn, `Cn1nc2ccc(OCc3cccnc3)cc2c1C(=O)NC(C)(CO)C(N)=O` (single isomer, unassigned) [Cpd 190 - En2] displayed an IC50 of less than 1 µM.

The record behind these values is patent publication US20250376461A1, “INDAZOLE DERIVATIVES FOR TREATING TRPM3-MEDIATED DISORDERS” (Katholieke Universiteit Leuven, priority 2022, published 2025).
